Earlier results on one substance are cited in US5580957A, “GnRH analogs” (The Salk Institute for Biological Studies, priority 1994, dated 1996).

In one series the target is T1, receptor (GnRH) (Homo sapiens, UniProt P30968).
T1 sequence (P30968 1-328): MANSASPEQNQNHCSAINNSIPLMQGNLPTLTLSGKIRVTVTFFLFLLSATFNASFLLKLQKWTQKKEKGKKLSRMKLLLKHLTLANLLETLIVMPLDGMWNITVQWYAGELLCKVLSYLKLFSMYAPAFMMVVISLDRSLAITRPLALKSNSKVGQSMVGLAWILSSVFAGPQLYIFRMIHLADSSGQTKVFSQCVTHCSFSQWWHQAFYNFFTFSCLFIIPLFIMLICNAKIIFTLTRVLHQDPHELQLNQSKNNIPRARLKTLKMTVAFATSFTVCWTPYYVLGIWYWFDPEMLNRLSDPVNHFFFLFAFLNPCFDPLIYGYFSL
The note with it: background statement.

The next series has as its system GnRH. To be noted: background statement.

Turning to “pGlu-His-Trp-Ser-Tyr-D-Ala-Leu-Arg-Pro-Gly-NH2 [[D-Ala^6]-GnRH]”, the “binding strength to the receptor versus native hormone” value on receptor (GnRH) is “greater binding strength”. The “biological potency versus native hormone” value in the series on GnRH is recorded as “greater biological potency than the native hormone”.
